Measured values from patent publication US4789665A, “Anthracyclines and drugs containing them” (Laboratoires Hoechst S. A., priority 1985, dated 1988).
Converted amounts (≈) assume the structure as drawn. Like-named read-outs stand apart in the source and are kept apart here.

Test system: leukemia L 1210 strain cells
Assay: cell proliferation test (colony formation, procedure of HAMBURGER and SALMON), continuous exposure
Format: cell-based
Details: Mus musculus
Experimental: The experimental protocol was performed according to the procedure of HAMBURGER and SALMON on leukemia L 1210 strain cells. Some modifications were introduced in the procedure of HAMBURGER and SALMON, and in particular:
the conditioned medium was replaced by McCoy5A. The number of cells in a dish was reduced to 5×10^2 cells per dish on account of the high covering efficiency of leukemia L 1210. […]
In addition, parallel experiments were carried out with continuous incubation and with various concentrations of the test substance by mixing the latter with the upper layer before application.
The dishes were kept in an incubator with 5% CO2, 20% O2, at 95% relative humidity for 5 to 7 days at 37° C. After this period, the colonies having a diameter greater than 60 μm were counted with an inverted microscope.
The results were expressed as a percentage of the number of colonies formed from treated L 1210 relative to an untreated control. The coefficient of variation of repeated experiments was less than 15%.

[1] = L1210, read-out: IC50 (continuous exposure)
[2] = L1210, L 1210 leukemia cells, continuous incubation, colonies >60 μm counted after 5 to 7 days at 37° C, read-out: IC50 (continuous exposure)

Row | SMILES | IC50 [1] [µg/mL] | IC50 [2] [µg/mL]
1 | COCCN(CC#N)[C@H]1C[C@H](O[C@H]2C[C@](O)(C(C)=O)Cc3c(O)c4c(c(O)c32)C(=O)c2c(OC)cccc2C4=O)O[C@@H](C)[C@H]1O [3'-N-cyanomethyl-3'-N-(2-methoxyethyl)daunorubicin] | 0.09 (≈ 0.144 µM) | –
2 | COCCOCCN(CCOCCOC)[C@H]1C[C@H](O[C@H]2C[C@](O)(C(C)=O)Cc3c(O)c4c(c(O)c32)C(=O)c2c(OC)cccc2C4=O)O[C@@H](C)[C@H]1O [3'-N,N-bis[2-(2-methoxyethoxy)ethyl]daunorubicin] | – | 0.22 (≈ 0.301 µM)
3 | CCN(CC)C(=O)CN(CC(=O)N(CC)CC)[C@H]1C[C@H](O[C@H]2C[C@](O)(C(C)=O)Cc3c(O)c4c(c(O)c32)C(=O)c2c(OC)cccc2C4=O)O[C@@H](C)[C@H]1O [3'-N,N-bis[(N,N-diethylcarbamoyl)methyl]daunorubicin] | – | 0.65 (≈ 0.862 µM)
4 | COCCOCCN[C@H]1C[C@H](O[C@H]2C[C@](O)(C(C)=O)Cc3c(O)c4c(c(O)c32)C(=O)c2c(OC)cccc2C4=O)O[C@@H](C)[C@H]1O [3'-N-[2-(2-methoxyethoxy)ethyl]daunorubicin] | – | 0.07 (≈ 0.111 µM)
5 | COc1cccc2c1C(=O)c1c(O)c3c(c(O)c1C2=O)C[C@@](O)(C(C)=O)C[C@@H]3O[C@H]1C[C@H](NCC#N)[C@H](O)[C@H](C)O1 [3'-N-(cyanomethyl)daunorubicin] | 0.0028 (≈ 0.00494 µM) | –
6 | COc1cccc2c1C(=O)c1c(O)c3c(c(O)c1C2=O)C[C@@](O)(C(C)=O)C[C@@H]3O[C@H]1C[C@H](N(CC#N)CC#N)[C@H](O)[C@H](C)O1 [3'-N,N-bis(cyanomethyl)daunorubicin] | – | 0.08 (≈ 0.132 µM)
7 | CCN(CC)C(=O)CN[C@H]1C[C@H](O[C@H]2C[C@](O)(C(C)=O)Cc3c(O)c4c(c(O)c32)C(=O)c2c(OC)cccc2C4=O)O[C@@H](C)[C@H]1O [3'-N-[(N,N-diethylcarbamoyl)methyl]daunorubicin] | – | 0.28 (≈ 0.437 µM)
8 | COCCN[C@H]1C[C@H](O[C@H]2C[C@](O)(C(C)=O)Cc3c(O)c4c(c(O)c32)C(=O)c2c(OC)cccc2C4=O)O[C@@H](C)[C@H]1O [3'-N-(2-methoxyethyl)daunorubicin] | – | 0.01 (≈ 0.0171 µM)
9 | COc1cccc2c1C(=O)c1c(O)c3c(c(O)c1C2=O)C[C@@](O)(C(=O)CO)C[C@@H]3O[C@H]1C[C@H](N)[C@H](O)[C@H](C)O1 [DOXORUBICIN, doxorubicin, reference compound] | – | 0.02 (≈ 0.0368 µM)
10 | COC(=O)CN[C@H]1C[C@H](O[C@H]2C[C@](O)(C(C)=O)Cc3c(O)c4c(c(O)c32)C(=O)c2c(OC)cccc2C4=O)O[C@@H](C)[C@H]1O [3'-N-(carbomethoxymethyl)daunorubicin] | – | 0.24 (≈ 0.4 µM)
11 | COc1cccc2c1C(=O)c1c(O)c3c(c(O)c1C2=O)C[C@@](O)(C(C)=O)C[C@@H]3O[C@H]1C[C@H](N)[C@H](O)[C@H](C)O1 [DAUNORUBICIN, daunorubicin, reference compound] | – | 0.02 (≈ 0.0379 µM)
